Laboratory results as given in US20040176431A1, “Antiproliferative 2-(sulfo-phenyl)-aminothiazole derivatives and pharmaceutical compositions, and methods for their use” (Pfizer, Inc., priority 2003, published 2004).

Legend:
[1] = test system: HCT-116 cells; experiment: Inhibition of cell growth (MTT tetrazolium salt assay); format: cell-based; details: Homo sapiens; for IC50: read-out: HCT116 IC50; for IC90: read-out: HCT116 IC90
Method: Inhibition of cell growth was measured using the tetrazolium salt assay, which is based on the ability of viable cells to reduce 3-(4,5-dimethylthiazol-2-yl)-2,5-[2H]-diphenyltetrazolium bromide (MTT) to formazan (Mosmann, J. Immunol. Meth., 65, 55-63 (1983)). The water-insoluble purple formazan product was then detected spectrophotometrically. HCT-116 cells were grown in 96-well plates. Cells were plated in the appropriate medium at a volume of 135 μl/well in either McCoy's 5A Medium. Plates were incubated for four hours before addition of inhibitor compounds. Different concentrations of inhibitor compounds were added in 0.5% (v/v) dimethylsulfoxide (15 μL/well), and cells were incubated at 37° C. (5% CO2) for four to six days (depending on cell type). At the end of the incubation, MTT was added to a final concentration of 0.2 mg/mL, and cells were incubated for 4 hours more at 37° C. After centrifugation of the plates and removal of medium, the absorbance of the formazan (solubilized in dimethylsulfoxide) was measured at 540 nm. […] All results were compared to control cells treated only with 0.5% (v/v) dimethylsulfoxide.

[2] = biological target: T1, CDK2/cyclin A (Homo sapiens, UniProt P24941); experiment: Inhibition of CDK2/Cyclin A retinoblastoma kinase activity; format: biochemical; details: apparent Ki, Rb fragment substrate
T1 construct: made in house; host or cells: CDK2: insect cells (baculovirus); cyclin A: E. coli, then limited proteolysis
Method: Cyclin-dependent kinase activity was measured by quantifying the enzyme-catalyzed, time-dependent incorporation of radioactive phosphate from [^32P]ATP or [^33P]ATP into a protein substrate. Unless noted otherwise, assays were performed in 96-well plates in a total volume of 50 μL, in the presence of 10 mM HEPES (N-[2-hydroxyethyl]piperazine-N′-[2-ethanesulfonic acid]) (pH 7.4), 10 mM MgCl2, 25 μM adenosine triphosphate (ATP), 1 mg/mL ovalbumin, 5 μg/mL leupeptin, 1 mM dithiothreitol, 10 mM β-glycerophosphate, 0.1 mM sodium vanadate, 1 mM sodium fluoride, 2.5 mM ethylene glycol-bis(β-aminoethyl ether)-N,N,N′N′-tetraacetic acid (EGTA), 2% (v/v) dimethylsulfoxide, and 0.03-0.4 μCi [^32/33P]ATP per reaction. Reactions were initiated with enzyme, incubated at 30° C., and terminated after 20 minutes by the addition of ethylenediaminetetraacetic acid (EDTA) to 250 mM. The phosphorylated substrate was then captured on a nitrocellulose or phosphocellulose membrane using a 96-well filtration manifold, and unincorporated radioactivity was removed by repeated washing with 0.85% phosphoric acid. Radioactivity was quantified by exposing the dried membranes to a phosphorimager.
Inhibition was measured relative to control wells that contained all reaction components including 2% (v/v) DMSO but no compound, after subtraction of background radioactivity measured in the absence of enzyme. Apparent Ki values of discrete compounds were measured by assaying enzyme activity in the presence of different inhibitor compound concentrations and subtracting the background radioactivity measured in the absence of enzyme. The kinetic parameters (kcat, Km for ATP) were measured for each enzyme under the usual assay conditions by determining the dependence of initial rates on ATP concentration. Inhibition data were fit to an equation for competitive inhibition using Kaleidagraph (Synergy Software), or were fit to an equation for competitive tight-binding inhibition using the software KineTic (BioKin, Ltd.).
CDK2 was purified using published methodology (Rosenblatt et al., J. Mol. Biol., 230, 1317-1319 (1993)) from insect cells that had been infected with a baculovirus expression vector. Cyclin A was purified from E. coli cells expressing full-length recombinant cyclin A, and a truncated cyclin A construct was generated by limited proteolysis and purified as described previously (Jeffrey et al., Nature, 376, 313-320 (1995)). A complex of CDK2 and proteolyzed cyclin A was prepared and purified by gel filtration. The substrate for this assay was the same Rb substrate fragment used for the CDK4 assays, and the methodology of the CDK2/delta cyclin A and the CDK4/delta cyclin D3 assays was essentially the same, except that CDK2 was present at 10 nM or 19 nM. The duration of the assay was 60 or 75 minutes, during which the time-dependence of product formation was linear and initial rate conditions were met.

[3] = biological target: T2, CDK4/cyclin D3 (Homo sapiens, UniProt P11802); experiment: Inhibition of CDK4/Cyclin D retinoblastoma kinase activity; format: biochemical; details: apparent Ki, Rb fragment substrate
T2 construct: made in house; host or cells: insect cells (baculovirus co-infection)
T2 sequence (P11802 whole entry, the tested form may be a part): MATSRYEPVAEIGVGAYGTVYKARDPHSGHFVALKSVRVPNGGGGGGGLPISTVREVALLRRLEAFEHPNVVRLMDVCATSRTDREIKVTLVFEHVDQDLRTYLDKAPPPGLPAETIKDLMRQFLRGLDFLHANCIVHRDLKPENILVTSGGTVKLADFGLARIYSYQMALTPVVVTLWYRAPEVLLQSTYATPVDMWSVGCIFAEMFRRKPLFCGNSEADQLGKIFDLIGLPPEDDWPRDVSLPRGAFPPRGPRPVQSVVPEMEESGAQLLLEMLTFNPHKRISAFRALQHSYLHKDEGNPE
T2 sequence (P30281 1-264 partner limits assumed): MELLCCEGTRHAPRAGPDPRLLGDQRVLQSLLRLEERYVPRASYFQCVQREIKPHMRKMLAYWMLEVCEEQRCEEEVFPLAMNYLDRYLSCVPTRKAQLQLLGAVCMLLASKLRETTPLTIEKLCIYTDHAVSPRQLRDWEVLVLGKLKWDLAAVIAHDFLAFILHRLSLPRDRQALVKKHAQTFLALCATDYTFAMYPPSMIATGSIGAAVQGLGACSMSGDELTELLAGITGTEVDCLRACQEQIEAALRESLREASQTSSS
Outline: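 Apparent Ki derived by fitting activity at varied inhibitor concentrations to competitive (or competitive tight-binding) inhibition equations, background without enzyme subtracted. Radiometric filter-binding read-out of Rb(386-928) phosphorylation by 5 nM CDK4/cyclin D3(1-264); 25 μM ATP, pH 7.4, 2% DMSO, 30° C., 20 min, extended to 60 min for tight binders.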

With Cc1csc(NS(=O)(=O)c2ccc(Nc3nc(N)c(C(=O)c4c(F)cccc4F)s3)cc2)n1 [E(1), 4-[4-Amino-5-(2,6-difluoro-benzoyl)-thiazol-2-ylamino]-N-(4-methyl-thiazol-2-yl)-benzenesulfonamide] as the compound, how does the IC50 [1] read?
The IC50 was 7000 nM.

And the IC90 [1]?
Its IC90 is 17000 nM.

What about the Ki [2] of the same compound?
Its Ki is 15 nM.

What about the Ki [3] of the same compound?
The Ki was 42 nM.

What does the source list for Cc1ccc(CNS(=O)(=O)c2ccc(Nc3nc(N)c(C(=O)c4c(F)cc(F)cc4F)s3)cc2)o1 [B(1), 4-[4-Amino-5-(2,4,6-trifluoro-benzoyl)-thiazol-2-ylamino]-N-(5-methyl-furan-2-ylmethyl)-benzenesulfonamide]?
IC50 [1]: 900 nM; IC90 [1]: 2000 nM; Ki [2]: < 10 nM; Ki [3]: 100 nM

For Nc1nc(Nc2ccc([S+]([O-])CCO)cc2)sc1C(=O)c1c(Cl)cccc1Cl (stereo not drawn) [Z(3), 4-Amino-5-(2,6-dichlorobenzoyl)-2-[4-(2-hydroxy-ethanesulfinyl)-phenylamino]-thiazole], which IC50 [1] is on record?
The IC50 was 6800 nM.

And the IC90 [1]?
Its IC90 is 16000 nM.

And the Ki [2]?
Its Ki is 170 nM.

What about the Ki [3] of the same compound?
Its Ki is 30 nM.

For COCCNS(=O)(=O)c1ccc(Nc2nc(N)c(C(=O)c3c(F)cccc3F)s2)cc1 [Example A(3)], which IC50 [1] is on record?
Its IC50 is 340 nM.

And the IC90 [1]?
Its IC90 is 720 nM.

And the Ki [2]?
The Ki was 3.5 nM.

And the Ki [3]?
The Ki was 53 nM.

With Nc1nc(Nc2ccc(S(=O)(=O)NCCCc3ccccc3)cc2)sc1C(=O)c1c(F)cccc1F [A(32), 4-[4-Amino-5-(2,6-difluoro-benzoyl)-thiazol-2-ylamino]-N-(3-phenyl-propyl)-benzenesulfonamide] as the compound, how does the IC50 [1] read?
Its IC50 is 140 nM.

What about the IC90 [1] of the same compound?
Its IC90 is 380 nM.

What about the Ki [2] of the same compound?
Its Ki is < 5 nM.

And the Ki [3]?
Its Ki is 16 nM.

What does the source list for CNCCNS(=O)(=O)c1ccc(Nc2nc(N)c(C(=O)c3c(F)cccc3F)s2)cc1 [D(3), 4-[4-Amino-5-(2,6-difluoro-benzoyl)-thiazol-2-ylamino]-N-(2-methylamino-ethyl)-benzenesulfonamide]?
IC50 [1]: 2900 nM; IC90 [1]: > 5000 nM; Ki [2]: 9.4 nM; Ki [3]: 5.7 nM

What does the source list for NC(=O)CSc1cccc(Nc2nc(N)c(C(=O)c3c(Cl)cccc3Cl)s2)c1 [Y(3), 2-{3-[4-Amino-5-(2,6-dichloro-benzoyl)-thiazol-2-ylamino]-phenylthio) acetamide]?
IC50 [1]: 11000 nM; IC90 [1]: > 25000 nM; Ki [2]: 92 nM; Ki [3]: 33 nM

CC1CCCCN1CCCNS(=O)(=O)c1ccc(Nc2nc(N)c(C(=O)c3c(F)cccc3F)s2)cc1 (stereo not drawn) [Example A(15), 4-[4-Amino-5-(2,6-difluoro-benzoyl)-thiazol-2-ylamino]-N-[3-(2RS-methyl-piperidin-1-yl)-propyl]-benzenesulfonamide] was tested. Which IC50 [1] did it give?
Its IC50 is 460 nM.

And the IC90 [1]?
Its IC90 is 1800 nM.

And the Ki [2]?
The Ki was 8.2 nM.

And the Ki [3]?
The Ki was 8.4 nM.

For Nc1nc(Nc2ccc(S(=O)(=O)NCCCN3CCCC3=O)cc2)sc1C(=O)c1c(F)cccc1F [A(25), 4-[4-Amino-5-(2,6-difluoro-benzoyl)-thiazol-2-ylamino]-N-[3-(2-oxo-pyrrolidin-1-yl)-propyl]-benzenesulfonamide], which IC50 [1] is on record?
The IC50 was 3400 nM.

And the IC90 [1]?
The IC90 was 5000 nM.

What about the Ki [2] of the same compound?
The Ki was 4.1 nM.

And the Ki [3]?
The Ki was 16 nM.

Which IC50 [1] does the source give for Cc1ccc(CCNS(=O)(=O)c2ccc(Nc3nc(N)c(C(=O)c4c(F)cccc4F)s3)cc2)cc1 [Example A(18), 4-[4-Amino-5-(2,6-difluoro-benzoyl)-thiazol-2-ylamino]-N-(2-p-tolyl-ethyl)-benzenesulfonamide] here?
Its IC50 is 1800 nM.

What about the IC90 [1] of the same compound?
Its IC90 is 3700 nM.

And the Ki [2]?
Its Ki is 5.8 nM.

What about the Ki [3] of the same compound?
Its Ki is 24 nM.

Nc1nc(Nc2ccc(S(=O)(=O)NCC3CCCNC3)cc2)sc1C(=O)c1c(F)cccc1F (stereo not drawn) [D(1), 4-[4-Amino-5-(2,6-difluoro-benzoyl)-thiazol-2-ylamino]-N-piperidin-3-ylmethyl-benzenesulfonamide] was tested. Which IC50 [1] did it give?
The IC50 was 17000 nM.

And the IC90 [1]?
The IC90 was > 25000 nM.

What about the Ki [2] of the same compound?
Its Ki is 18 nM.

And the Ki [3]?
The Ki was 12 nM.

For Nc1nc(Nc2ccc(S(=O)(=O)N3CCNCC3)cc2)sc1C(=O)c1c(F)cccc1F [Example A(1), {4-Amino-2-[4-(piperazine-1-sulfonyl)-phenylamino]-thiazol-5-yl}-(2,6-difluoro-phenyl)-methanone], which IC50 [1] is on record?
Its IC50 is 1000 nM.

What about the IC90 [1] of the same compound?
The IC90 was 2700 nM.

And the Ki [2]?
Its Ki is 14 nM.

What about the Ki [3] of the same compound?
Its Ki is 26 nM.

What does the source list for Nc1nc(Nc2ccc(S(=O)(=O)NCCO)cc2)sc1C(=O)c1c(F)cccc1F [Example A(4), 4-[4-Amino-5-(2,6-difluoro-benzoyl)-thiazol-2-ylamino]-N-(2-hydroxy-ethyl)-benzenesulfonamide]?
IC50 [1]: 1000 nM; IC90 [1]: 2800 nM; Ki [2]: 4.5 nM; Ki [3]: 28 nM

Which results are given for Nc1nc(Nc2ccc(S(=O)(=O)NCCc3ccccn3)cc2)sc1C(=O)c1c(F)cccc1F [A(24), 4-[4-Amino-5-(2,6-difluoro-benzoyl)-thiazol-2-ylamino]-N-(2-pyridin-2-yl-ethyl)-benzenesulfonamide]?
IC50 [1]: 1200 nM; IC90 [1]: 2600 nM; Ki [2]: 5 nM; Ki [3]: 18 nM

What does the source list for CCSCCNS(=O)(=O)c1ccc(Nc2nc(N)c(C(=O)c3c(F)cccc3F)s2)cc1 [Example A(19), 4-[4-Amino-5-(2,6-difluoro-benzoyl)-thiazol-2-ylamino]-N-(2-ethylsulfanyl-ethyl)-benzenesulfonamide]?
IC50 [1]: 400 nM; IC90 [1]: 1300 nM; Ki [2]: 1.8 nM; Ki [3]: 24 nM

Which IC50 [1] does the source give for Nc1nc(Nc2ccc(S(=O)(=O)Nc3ccccc3)cc2)sc1C(=O)c1c(F)cccc1F [C(1), 4-[4-Amino-5-(2,6-difluoro-benzoyl)-thiazol-2-ylamino]-N-phenyl-benzenesulfonamide] here?
The IC50 was 870 nM.

What about the IC90 [1] of the same compound?
The IC90 was 1900 nM.

And the Ki [2]?
Its Ki is 17 nM.

What about the Ki [3] of the same compound?
The Ki was 76 nM.

With Nc1nc(Nc2ccc(S(=O)(=O)NC3CCNCC3)cc2)sc1C(=O)c1c(F)cccc1F [BB(1), 4-[4-Amino-5-(2,6-difluoro-benzoyl)-thiazol-2-ylamino]-N-piperidin-4-yl-benzenesulfonamide] as the compound, how does the IC50 [1] read?
Its IC50 is 22000 nM.

And the IC90 [1]?
The IC90 was > 50000 nM.

And the Ki [2]?
Its Ki is 13 nM.

What about the Ki [3] of the same compound?
Its Ki is 13 nM.

How did the IC50 [1] turn out when Nc1nc(Nc2ccc(S(=O)(=O)NCCc3cccs3)cc2)sc1C(=O)c1c(F)cccc1F [A(23), 4-[4-Amino-5-(2,6-difluoro-benzoyl)-thiazol-2-ylamino]-N-(2-thiophen-2-yl-ethyl)-benzenesulfonamide] was run?
The IC50 was 440 nM.

And the IC90 [1]?
Its IC90 is 1200 nM.

What about the Ki [2] of the same compound?
Its Ki is 13 nM.

And the Ki [3]?
Its Ki is 17 nM.

Which IC50 [1] does the source give for Nc1nc(Nc2ccc(S(=O)(=O)NCCNc3ccccc3)cc2)sc1C(=O)c1c(F)cccc1F [Example A(9), 4-[4-Amino-5-(2,6-difluoro-benzoyl)-thiazol-2-ylamino]-N-(2-phenylamino-ethyl)-benzenesulfonamide] here?
The IC50 was 140 nM.

What about the IC90 [1] of the same compound?
Its IC90 is 400 nM.

And the Ki [2]?
Its Ki is < 5 nM.

And the Ki [3]?
The Ki was < 5 nM.

What does the source list for NC(=O)C[S+]([O-])c1cccc(Nc2nc(N)c(C(=O)c3c(Cl)cccc3Cl)s2)c1 (stereo not drawn) [Z(5), 2-{3-[4-Amino-5-(2,6-dichloro-benzoyl)-thiazol-2-ylamino]-benzenesulfinyl}-acetamide]?
IC50 [1]: > 25000 nM; IC90 [1]: > 25000 nM; Ki [2]: 330 nM; Ki [3]: 230 nM

Which IC50 [1] does the source give for CS(=O)(=O)c1ccc(Nc2nc(N)c(C(=O)c3c(F)cccc3F)s2)cc1 [Q(1), 1-[4-Amino-2-(4-methanesulfonyl-phenylamino)-thiazol-5-yl]-1-(2,6-difluoro-phenyl)-methanone] here?
The IC50 was 1300 nM.

And the IC90 [1]?
Its IC90 is 3800 nM.

What about the Ki [2] of the same compound?
Its Ki is 210 nM.

And the Ki [3]?
The Ki was 73 nM.
